Measured values from paper PMC10605077, “In Vitro and In Silico Antiviral Activity of Di-Halogenated Compounds Derived from L-Tyrosine against Human Immunodeficiency Virus 1 (HIV-1)” (Current Issues in Molecular Biology, 2023).
“Also recorded” adds a separate entry of the source.

Legend:
[1] = MTT cytotoxicity assay; type: cell-based; conditions: human; TZM-bl cells, MTT, 48 h
Method: (§1) The in vitro cytotoxic effect of the di-halogenated compounds on TZM-bl cells was determined with the MTT (3-(4,5-Dimethylthiazol-2-yl)-2,5-diphenyltetrazolium bromide) assay (Sigma-Aldrich, St. Louis, MO, USA). For this purpose, 1.2 × 10^5 cells/well were seeded in 96-well plates, which were incubated at 37 °C and 5% CO2 for 24 h. DMEM was used as a negative control and serial two-fold dilutions of the compounds were performed at 9.37 to 300 μM in DMEM supplemented with 5% FBS. A total of 100 μL/well of each dilution was added and incubated for 48 h. Subsequently, the cells were washed 2 times with 1X PBS, and 30 μL of MTT solution (2 mg/mL) was added and incubated for 2 h at 37 °C, in a light-protected culture. Then, 100 µL of DMSO was added to dissolve the formazan crystals, placed in shaking for 15 min, and absorbance reading was performed at 570 nm, using the Microplate Spectrophotometer (Thermo Scientific™ Multiskan™ GO, Waltham, MA, USA). Two independent experiments evaluated each experimental condition in quadruplicate (n = 8). The percentage of viability was calculated concerning the absorbance of the controls without a compound (100% viability). The 50% cytotoxic concentration was defined as the concentration of each compound that can reduce cell viability to 50% of the untreated cell control. CC50 was calculated and analyzed with GraphPad Prism version 8.0.1 (GraphPad Software, Inc., San Diego, CA, USA).

[2] = Viability assay of PBMC, flow cytometry with viability dye; type: cell-based, Human; conditions: human, PBMC stimulated with PHA and IL-2; all concentrations tested (18.75 μM up to 150 μM), 7 days; read-out: viability level on PBMCs
Method: (§2) PBMCs were thawed and let in the culture in RPMI with 10% fetal bovine serum (FBS) (Gibco, Grand Island, NY, USA) for 24 h before each experiment. Cells were stimulated for 48 h with 8 μg/mL of Phytohemagglutinin-PHA (Sigma-Aldrich, St. Louis, MO, USA) and 50 UI/mL of IL-2 (Peprotech, Rocky Hill, CT, USA). In the presence of various concentrations of di-halogenated compounds derived from L-Tyrosine, 2 × 10^5 cells per well were treated and resuspended in 200 µL of fresh medium with 20 UI/mL of IL-2 and incubated in 96-well culture plates for 7 days. After 7 days post-treatment, cell viability was determined using flow cytometry. Briefly, cells were stained with fixable viability dye eFluor 506 (eBioscience, Leicestershire, UK) as detailed in the manufacturer’s protocol for 30 min in the dark. Later, cells were washed and resuspended in PBS, and the percentage of viable cells was measured instead in the LS Fortessa cytometer (BD Biosciences, Franklin Lakes, NJ, USA). Data were analyzed using FlowJo version 10.5.3 (FlowJo, LLC, Ashland, OR, USA).

[3] = tested on: HIV-1 BaL (R5); experiment: Anti-HIV activity in infected TZM-bl cells (luciferase), pre- and post-infection treatment; type: cell-based, Human Immunodeficiency Virus Type 1 (HIV-1)
Method: (§3) TZM-bl cells were plated in a flat-bottom 96-well plate (Corning Inc., Corning, New York, NY, USA) at the concentration of 1.2 × 10^5 cells/well and incubated for 24 h at 37 °C before the addition or not of each compound at non-cytotoxic concentrations (pre-infection treatment). Then, 1 h later the treatment was removed, and the infection was performed by adding 10 ng/mL of HIV-1IIIB p24 (X4) or 2 ng/mL of HIV-1 BaL (R5). After 3 h, the virus was removed and washed, and the compound dilutions were added again (post-infection treatment). Additionally, three wells were left for the negative control (cells without treatment or infection), the positive control of infection (cells infected with the virus without treatment), and the positive control of inhibition (AZT). Antiviral activity was quantified 48 h after treatment by measuring luciferase activity, which is directly proportional to the number of infectious virus particles in the sample [23]. The luciferase activity was quantified via luminescence emitted by the cells using Bright-GloTM Luciferase Assay System (Promega Corp., Madison, WI, USA), following the manufacturer’s instructions. Briefly, 100 μL of the reagent was added to 100 μL of TZM-bl cells and incubated for at least 2 min, protected from light. Relative light units (RLUs) were measured using the multi-mode plate reader (Thermo ScientificTM VarioskanTM LUX). Each experimental condition was performed in triplicate in two independent experiments (n = 6). The percentage inhibition was calculated as follows: 100 − (RLU of treated cells − RLU of uninfected cells/RLU of infection control − RLU of uninfected cells) × 100.

[4] = tested on: HIV-1IIIB (X4); experiment: as above; type: cell-based, Human Immunodeficiency Virus Type 1 (HIV-1); conditions: for SI: selectivity index against HIV-1IIIB (CC50 and IC50 of Table 4)
Method: as §3

[5] = tested on: HIV-GFP-VSV-G reporter virus; experiment: microbe, parasite or virus in culture; type: cell-based, HIV-1
[6] = tested on: HIV-1 BaL; experiment: Anti-HIV activity in PBMC, intracellular p24 by flow cytometry; type: cell-based
Method: In the presence of various concentrations of the most bioactive compounds, 1×10^6 PBMCs previously stimulated with 8 μg/mL of PHA and 50UI/mL of IL-2 were treated for 1 h. […] After spinoculation, cells were washed twice with PBS 1x to remove free virions, and then, fresh medium supplemented with 20 UI/mL of IL-2, with or without the di-halogenated compounds derived from L-Tyrosine dilutions, was added. Cells were plated in 96-well culture plates and incubated for 7 days. […] In addition, antiviral activity was also assessed by measuring intracellular p24 in harvested cells. Briefly, cells were stained with fixable viability dye eFluor 506 (eBioscience, Leicestershire, UK), CD3 (UCHT1; Thermo Scientific, Wilmington, DE, USA), CD4 (RPA-T4; BD Biosciences, San Jose, CA, USA), and p24 PE (KC57; Beckman Coulter, Pasadena, CA, USA), as detailed in the manufacturer’s protocol. Later, cells were washed and resuspended in PBS, and the lecture was measured instead in the LS Fortessa cytometer (BD Biosciences, Franklin Lakes, NJ, USA). Data were analyzed using FlowJo version 10.5.3 (FlowJo, LLC, Ashland, OR, USA).

[7] = tested on: TZM-bl cells; experiment: MTT cytotoxicity assay; type: cell-based
Method: as §1

[8] = tested on: PBMC; experiment: Viability assay of PBMC, flow cytometry with viability dye; type: cell-based, Human; conditions: PBMCs
Method: as §2

[9] = tested on: HIV-1 BaL; experiment: Anti-HIV activity in PBMC, p24 ELISA of supernatant; type: cell-based; conditions: Human immunodeficiency virus 1, BAL, PBMC, AZT (10 µM); read-out: inhibition of HIV-1 BaL in PBMC, extracellular p24 ELISA
[10] = Human immunodeficiency virus 1, BAL, TZM-bl cells, read-out: Percentage inhibition of HIV-1 BaL replication
[11] = Human immunodeficiency virus 1, TZM-bl, TZM-bl cells, read-out: Percentage inhibition of HIV-1IIIB (X4 strain) replication
[12] = Human immunodeficiency virus 1, TZM-bl, read-out: percentage inhibition of HIV-GFP-VSV-G replication

Which CC50 at 48 h [1] does the source give for `COc1c(Br)cc(C[C@@H](C(=O)O)N(C)C)cc1Br` [TODB-2M] here?
The CC50 at 48 h was 165 µM.

What about the viability at 7 days [2] of the same compound?
Its viability at 7 days is > 90%.

And the IC50 ([3]; Human immunodeficiency virus 1, BAL, TZM-bl, 48 h, HIV-1 BaL (R5), TZM-bl cells, luciferase)?
Its IC50 is 114 µM.

And the inhibition at 18 µM [3, 10]?
The inhibition at 18 µM was 36.3%.

What about the inhibition at 37 µM [3, 10] of the same compound?
The inhibition at 37 µM was 34.1%.

What about the inhibition at 75 µM ([3]; Human immunodeficiency virus 1, BAL, 75 µM, TZM-bl cells, read-out: Percentage inhibition of HIV-1 BaL replication) of the same compound?
The inhibition at 75 µM was 37.7%.

What about the inhibition at 150 µM ([3]; Human immunodeficiency virus 1, BAL, 150 µM, TZM-bl cells, read-out: Percentage inhibition of HIV-1 BaL replication) of the same compound?
The inhibition at 150 µM was 45.8%.

And the SI ([3]; selectivity index against HIV-1 BaL (CC50 and IC50 of Table 3))?
The SI was 1.45.

And the inhibition at 18 µM [4, 11]?
Its inhibition at 18 µM is 22.2%.

What about the inhibition at 37 µM [4, 11] of the same compound?
The inhibition at 37 µM was -4%.

What about the inhibition at 75 µM [4, 11] of the same compound?
The inhibition at 75 µM was 9.9%.

And the inhibition at 150 µM ([4]; Human immunodeficiency virus 1, TZM-bl, 150 µM, TZM-bl cells, read-out: Percentage inhibition of HIV-1IIIB (X4 strain) replication)?
Its inhibition at 150 µM is 95.9%.

And the IC50 ([4]; Human immunodeficiency virus 1, HIV-1IIIB (X4), TZM-bl cells, luciferase, 48 h)?
The IC50 was ~82.7 µM.

And the SI [4]?
Its SI is ~1.99.

And the SI [5]?
The SI was 1.16.

What about the IC50 ([5]; Human immunodeficiency virus 1, TZM-bl, 48 h) of the same compound?
The IC50 was 142 µM.

What about the inhibition at 150 µM [5, 12] of the same compound?
Its inhibition at 150 µM is 44.2%.

And the inhibition at 75 µM ([6]; Human immunodeficiency virus 1, BAL, PBMC, 168 h, 75 μM, 7 days, read-out: inhibition of HIV-1 BaL replication in PBMC, flow cytometry (intracellular p24))?
The inhibition at 75 µM was 56.5%.

And the inhibition at 150 µM ([6]; Human immunodeficiency virus 1, BAL, PBMC, 168 h, 150 µM, 7 days, read-out: inhibition of HIV-1 BaL replication in PBMC, flow cytometry (intracellular p24))?
The inhibition at 150 µM was > 60%.

What about the “inhibition of HIV-1 BaL replication in PBMC, flow cytometry (intracellular p24)” value ([6]; all concentrations, 7 days) of the same compound?
Its value is “over 50%”.

With `C[N+](C)(C)CCc1cc(Br)c(O)c(Br)c1` [YDB-3M] as the compound, how does the CC50 at 48 h [1] read?
Its CC50 at 48 h is ~101 µM.

What about the cytotoxicity level ([7]; 150 μM, 48 h) of the same compound?
Its cytotoxicity level is “higher level of cytotoxicity”.

What about the “anti-HIV activity against R5 strain in words” value ([3]; HIV-1 BaL, TZM-bl cells) of the same compound?
Its value is “had no activity; also recorded: did not show significant anti-HIV activity”.

And the inhibition at 18 µM [3, 10]?
Its inhibition at 18 µM is 7.2%.

And the inhibition at 37 µM [3, 10]?
The inhibition at 37 µM was -10.2%.

And the inhibition at 18 µM [4, 11]?
The inhibition at 18 µM was 39.2%.

What about the inhibition at 37 µM [4, 11] of the same compound?
Its inhibition at 37 µM is 1.8%.

And the inhibition at 75 µM [4, 11]?
Its inhibition at 75 µM is -19.4%.

What about the SI [4] of the same compound?
The SI was ~32.65.

Which toxicity in words [7] does the source give for `Cc1cn([C@H]2C[C@H](N=[N+]=[N-])[C@@H](CO)O2)c(=O)[nH]c1=O` [AZT, Zidovudine, reference compound] here?
Its toxicity in words is “Neither the viral inhibition control (AZT) nor the solvent (DMSO) was toxic”.

What about the toxicity in words [8] of the same compound?
The toxicity in words was “Neither the viral inhibition control (AZT) nor the solvent (DMSO) proved toxic”.

And the inhibition at 10 µM ([3]; Human immunodeficiency virus 1, BAL, TZM-bl, read-out: inhibition of viral infection (HIV-1 BaL))?
The inhibition at 10 µM was > 90%.

And the inhibition at 10 µM ([4]; Human immunodeficiency virus 1, TZM-bl, read-out: inhibition of virus infections (HIV-1IIIB))?
Its inhibition at 10 µM is > 90%.

What about the inhibition at 10 µM [5, 12] of the same compound?
Its inhibition at 10 µM is 93.2%.

What about the inhibition at 10 µM ([6]; Human immunodeficiency virus 1, BAL, PBMC, AZT (10 µM), positive control, read-out: inhibition of HIV-1 BaL replication in PBMC, flow cytometry (intracellular p24)) of the same compound?
The inhibition at 10 µM was 99.4%.

And the inhibition at 10 µM [9]?
Its inhibition at 10 µM is > 90%.
